From patent US8143290B2, “Chemical compounds 572” (AstraZeneca AB, priority 2006, dated 2012)

Target: T1, recombinant human GR (Homo sapiens, UniProt P04150)
T1 construct: purchased Panvera/Invitrogen P2812 (kit P2893)
T1 sequence (P04150 1-777): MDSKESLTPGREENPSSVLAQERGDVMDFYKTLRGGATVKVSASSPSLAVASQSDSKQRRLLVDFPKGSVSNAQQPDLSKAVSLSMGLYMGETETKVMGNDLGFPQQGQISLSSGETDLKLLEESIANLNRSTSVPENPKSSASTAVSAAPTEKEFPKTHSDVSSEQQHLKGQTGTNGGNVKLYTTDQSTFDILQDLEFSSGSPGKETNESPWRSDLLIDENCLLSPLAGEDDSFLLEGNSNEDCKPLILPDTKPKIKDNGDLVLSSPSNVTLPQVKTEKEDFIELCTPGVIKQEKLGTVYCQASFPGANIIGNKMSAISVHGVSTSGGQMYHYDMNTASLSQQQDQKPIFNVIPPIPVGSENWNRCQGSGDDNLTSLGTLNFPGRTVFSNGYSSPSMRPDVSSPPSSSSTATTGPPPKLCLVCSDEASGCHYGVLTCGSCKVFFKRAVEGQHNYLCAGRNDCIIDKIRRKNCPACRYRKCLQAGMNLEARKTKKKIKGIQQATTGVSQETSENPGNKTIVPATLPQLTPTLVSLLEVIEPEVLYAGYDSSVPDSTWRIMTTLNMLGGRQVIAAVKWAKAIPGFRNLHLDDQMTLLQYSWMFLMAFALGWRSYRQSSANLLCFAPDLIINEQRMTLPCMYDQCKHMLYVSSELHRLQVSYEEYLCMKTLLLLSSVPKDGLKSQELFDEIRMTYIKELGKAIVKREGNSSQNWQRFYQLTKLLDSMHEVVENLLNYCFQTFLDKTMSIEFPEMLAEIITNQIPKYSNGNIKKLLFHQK
Assay: Human Glucocorticoid Receptor (GR) Assay, fluorescence polarization
Assay type: binding
Details: GS Red tracer, incubated 2 h at r.t., XLfit model 205, read-out: GRhuFL_FP_v2 Mean IC50
Outline: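 Fluorescence polarization kit assay: recombinant GR and GS Red fluorescent ligand with Stabilizing Peptide and DTT in potassium phosphate/sodium molybdate/EDTA screening buffer. Plates incubated 2 h in the dark at r.t.; DMSO served as 0% and dexamethasone as 100% control.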

| IC50 [nM] | SMILES |
| --- | --- |
| 3.6 | Cc1ccc(C)c([C@@H](Oc2ccc3c(cnn3-c3ccc(F)cc3)c2)[C@H](C)NC(=O)C(F)(F)F)c1 [Example 153, N-[(1R,2S)-1-(2,5-dimethylphenyl)-1-[1-(4-fluorophenyl)indazol-5-yl]oxy-propan-2-yl]-2,2,2-trifluoro-acetamide] |
| 4.7 | Cc1ccc([C@@H](Oc2ccc3c(cnn3-c3ccc(F)cc3)c2)[C@H](C)NC(=O)C(F)(F)F)c(C)c1 [Example 154, N-[(1R,2S)-1-(2,4-dimethylphenyl)-1-[1-(4-fluorophenyl)indazol-5-yl]oxy-propan-2-yl]-2,2,2-trifluoro-acetamide] |
| 5 | C[C@H](NC(=O)C(F)(F)F)[C@H](Oc1ccc2c(cnn2-c2ccc(F)cc2)c1)c1cccc(Cl)c1 [Example 155, N-[(1R,2S)-1-(3-chlorophenyl)-1-[1-(4-fluorophenyl)indazol-5-yl]oxy-propan-2-yl]-2,2,2-trifluoro-acetamide] |
| 4.2 | Cc1cc(F)ccc1[C@@H](Oc1ccc2c(cnn2-c2ccc(F)cc2)c1)[C@H](C)NC(=O)C(F)(F)F [Example 156, 2,2,2-trifluoro-N-[(1R,2S)-1-(4-fluoro-2-methyl-phenyl)-1-[1-(4-fluorophenyl)indazol-5-yl]oxy-propan-2-yl]acetamide] |
| 5.3 | Cc1ccc(F)cc1[C@@H](Oc1ccc2c(cnn2-c2ccc(F)cc2)c1)[C@H](C)NC(=O)C(F)(F)F [Example 157, 2,2,2-trifluoro-N-[(1R,2S)-1-(5-fluoro-2-methyl-phenyl)-1-[1-(4-fluorophenyl)indazol-5-yl]oxy-propan-2-yl]acetamide] |
| 4.2 | COc1c(C)cc([C@@H](Oc2ccc3c(cnn3-c3ccc(F)cc3)c2)[C@H](C)NC(=O)C(F)(F)F)cc1C [Example 159, 2,2,2-trifluoro-N-[(1R,2S)-1-[1-(4-fluorophenyl)indazol-5-yl]oxy-1-(4-methoxy-3,5-dimethyl-phenyl)propan-2-yl]acetamide] |
| 4.1 | C[C@H](NC(=O)C(F)(F)F)[C@H](Oc1ccc2c(cnn2-c2ccc(F)cc2)c1)c1ccc(Cl)cc1 [Example 160, N-[(1R,2S)-1-(4-chlorophenyl)-1-[1-(4-fluorophenyl)indazol-5-yl]oxy-propan-2-yl]-2,2,2-trifluoro-acetamide] |
| 8.5 | C[C@H](NC(=O)C(F)(F)F)[C@H](Oc1ccc2c(cnn2-c2ccc(F)cc2)c1)c1cc(F)cc(Cl)c1 [Example 161, N-[(1R,2S)-1-(3-chloro-5-fluoro-phenyl)-1-[1-(4-fluorophenyl)indazol-5-yl]oxy-propan-2-yl]-2,2,2-trifluoro-acetamide] |
| 14 | Cc1cc(C)c([C@@H](Oc2ccc3c(cnn3-c3ccc(F)cc3)c2)[C@H](C)NC(=O)C(F)(F)F)cc1C [Example 162, 2,2,2-trifluoro-N-[(1R,2S)-1-[1-(4-fluorophenyl)indazol-5-yl]oxy-1-(2,4,5-trimethylphenyl)propan-2-yl]acetamide] |
| 16 | C[C@H](NC(=O)C(F)(F)F)[C@H](Oc1ccc2c(cnn2-c2ccc(F)cc2)c1)c1ccc(C(C)(C)C)cc1 [Example 163, 2,2,2-trifluoro-N-[(1R,2S)-1-[1-(4-fluorophenyl)indazol-5-yl]oxy-1-(4-tert-butylphenyl)propan-2-yl]acetamide] |
| 4.2 | COc1ccccc1[C@@H](Oc1ccc2c(cnn2-c2ccc(F)cc2)c1)[C@H](C)NC(=O)C(F)(F)F [Example 164, 2,2,2-trifluoro-N-[(1R,2S)-1-[1-(4-fluorophenyl)indazol-5-yl]oxy-1-(2-methoxyphenyl)propan-2-yl]acetamide] |
| 6.4 | CCCc1ccc([C@@H](Oc2ccc3c(cnn3-c3ccc(F)cc3)c2)[C@H](C)NC(=O)C(F)(F)F)cc1 [Example 165, 2,2,2-trifluoro-N-[(1R,2S)-1-[1-(4-fluorophenyl)indazol-5-yl]oxy-1-(4-propylphenyl)propan-2-yl]acetamide] |
| 6.9 | C[C@H](NC(=O)C(F)(F)F)[C@H](Oc1ccc2c(cnn2-c2ccc(F)cc2)c1)c1ccc2c(c1)OCO2 [Example 166, N-[(1R,2S)-1-benzo[1,3]dioxol-5-yl-1-[1-(4-fluorophenyl)indazol-5-yl]oxy-propan-2-yl]-2,2,2-trifluoro-acetamide] |
| 8.6 | Cc1c(F)cccc1[C@@H](Oc1ccc2c(cnn2-c2ccc(F)cc2)c1)[C@H](C)NC(=O)C(F)(F)F [Example 167, 2,2,2-trifluoro-N-[(1R,2S)-1-(3-fluoro-2-methyl-phenyl)-1-[1-(4-fluorophenyl)indazol-5-yl]oxy-propan-2-yl]acetamide] |
| 6.2 | Cc1cc([C@@H](Oc2ccc3c(cnn3-c3ccc(F)cc3)c2)[C@H](C)NC(=O)C(F)(F)F)ccc1Cl [Example 168, N-[(1R,2S)-1-(4-chloro-3-methyl-phenyl)-1-[1-(4-fluorophenyl)indazol-5-yl]oxy-propan-2-yl]-2,2,2-trifluoro-acetamide] |
| 8.1 | Cc1cc(Cl)ccc1[C@@H](Oc1ccc2c(cnn2-c2ccc(F)cc2)c1)[C@H](C)NC(=O)C(F)(F)F [Example 169, N-[(1R,2S)-1-(4-chloro-2-methyl-phenyl)-1-[1-(4-fluorophenyl)indazol-5-yl]oxy-propan-2-yl]-2,2,2-trifluoro-acetamide] |
| 7.1 | C[C@H](NC(=O)C(F)(F)F)[C@H](Oc1ccc2c(cnn2-c2ccc(F)cc2)c1)c1ccc(Cl)c(F)c1 [Example 170, N-[(1R,2S)-1-(4-chloro-3-fluoro-phenyl)-1-[1-(4-fluorophenyl)indazol-5-yl]oxy-propan-2-yl]-2,2,2-trifluoro-acetamide] |
| 5.6 | Cc1ccc([C@@H](Oc2ccc3c(cnn3-c3ccc(F)cc3)c2)[C@H](C)NC(=O)C(C)(C)C)cc1C [Example 171, N-[(1R,2S)-1-(3,4-dimethylphenyl)-1-[1-(4-fluorophenyl)indazol-5-yl]oxy-propan-2-yl]-2,2-dimethyl-propanamide] |
| 4.3 | C[C@H](NC(=O)C(C)(C)C)[C@H](Oc1ccc2c(cnn2-c2ccc(F)cc2)c1)c1ccc(F)c(F)c1 [Example 172, N-[(1R,2S)-1-(3,4-difluorophenyl)-1-[1-(4-fluorophenyl)indazol-5-yl]oxy-propan-2-yl]-2,2-dimethyl-propanamide] |
| 4.6 | Cc1ccc([C@@H](Oc2ccc3c(cnn3-c3ccc(F)cc3)c2)[C@H](C)NC(=O)C(C)(C)C)cc1F [Example 173, N-[(1R,2S)-1-(3-fluoro-4-methyl-phenyl)-1-[1-(4-fluorophenyl)indazol-5-yl]oxy-propan-2-yl]-2,2-dimethyl-propanamide] |
| 4.1 | C[C@H](NC(=O)C(C)(C)C)[C@H](Oc1ccc2c(cnn2-c2ccc(F)cc2)c1)c1cccc(F)c1 [Example 174, N-[(1R,2S)-1-(3-fluorophenyl)-1-[1-(4-fluorophenyl)indazol-5-yl]oxy-propan-2-yl]-2,2-dimethyl-propanamide] |
| 4.3 | Cc1ccc(C)c([C@@H](Oc2ccc3c(cnn3-c3ccc(F)cc3)c2)[C@H](C)NC(=O)C(C)(C)C)c1 [Example 175, N-[(1R,2S)-1-(2,5-dimethylphenyl)-1-[1-(4-fluorophenyl)indazol-5-yl]oxy-propan-2-yl]-2,2-dimethyl-propanamide] |
| 4.9 | Cc1ccc([C@@H](Oc2ccc3c(cnn3-c3ccc(F)cc3)c2)[C@H](C)NC(=O)C(C)(C)C)c(C)c1 [Example 176, N-[(1R,2S)-1-(2,4-dimethylphenyl)-1-[1-(4-fluorophenyl)indazol-5-yl]oxy-propan-2-yl]-2,2-dimethyl-propanamide] |
| 3.9 | COc1ccc([C@@H](Oc2ccc3c(cnn3-c3ccc(F)cc3)c2)[C@H](C)NC(=O)C(C)(C)C)cc1F [Example 177, N-[(1R,2S)-1-(3-fluoro-4-methoxy-phenyl)-1-[1-(4-fluorophenyl)indazol-5-yl]oxy-propan-2-yl]-2,2-dimethyl-propanamide] |
| 3.9 | C[C@H](NC(=O)C(C)(C)C)[C@H](Oc1ccc2c(cnn2-c2ccc(F)cc2)c1)c1cccc(Cl)c1 [Example 178, N-[(1R,2S)-1-(3-chlorophenyl)-1-[1-(4-fluorophenyl)indazol-5-yl]oxy-propan-2-yl]-2,2-dimethyl-propanamide] |
| 3.7 | Cc1cc(F)ccc1[C@@H](Oc1ccc2c(cnn2-c2ccc(F)cc2)c1)[C@H](C)NC(=O)C(C)(C)C [Example 179, N-[(1R,2S)-1-(4-fluoro-2-methyl-phenyl)-1-[1-(4-fluorophenyl)indazol-5-yl]oxy-propan-2-yl]-2,2-dimethyl-propanamide] |
| 6.8 | Cc1ccc(F)cc1[C@@H](Oc1ccc2c(cnn2-c2ccc(F)cc2)c1)[C@H](C)NC(=O)C(C)(C)C [Example 180, N-[(1R,2S)-1-(5-fluoro-2-methyl-phenyl)-1-[1-(4-fluorophenyl)indazol-5-yl]oxy-propan-2-yl]-2,2-dimethyl-propanamide] |
